# In patent US20210262008A1, “METHOD OF PERSONALIZED TREATMENT FOR CARDIOMYOPATHY AND HEART FAILURE AND OTHER RELATED DISEASES BY MEASURING RENIN ACTIVITY, PRO-RENIN, PRO-RENIN RECEPTOR LEVELS IN BLOOD” (priority 2018, published 2021):
# Like-named read-outs stand apart in the source and are kept apart here.
# How the values were obtained:
# mice = conditions: mouse, in vivo
# Method: (§1) Dose calculations were based on an average consumption of 5 mL of water/day/mouse. […] The oral dose was chosen to closely mimic the human route of delivery, while not altering the blood pressure, associated with elevated plasma Ang II-aldosterone levels, given the low bioavailability of the drug in rodents. […] No issues with palatability or clinical dehydration were noted throughout the study as assessed by blinded husbandry and veterinary staff. […] The administration was started at 50 days of age to coincide with the previously identified timeline of increased renin activity and development of stage B HF in female DCM mice]. Aliskiren water was provided ad libitum throughout life. All untreated mice (WT and DCM+vehicle) received ad lib 3 ppm hyperchlorinated facility water via an automated watering system (Edstrom, Waterford, Wis., USA).
# [1] = system: female mice with dilated cardiomyopathy (DCM); assay: Plasma Ang II, aldosterone and HF biomarkers by enzyme immunoassay in DCM mice at 90 days; format: in vivo, mouse; conditions: for plasma aldosterone levels: 100 mg/kg/day oral, 100 mg/kg/day
# Description: Mice: In the Examples 1-3 below, the mice used were all female littermates with or without dilated cardiomyopathy (DCM) on a C57BL/6 background. DCM is a major cause of HF, which is associated with pathological dilation of the heart ventricles and declines in heart contractile or systolic function. DCM mice express transgene dominant negative CREB transcription factor, specific to cardiomyocytes and develop a consistent progressive DCM and HF similar to humans. In female mice with DCM renal function remains within normal range up to the terminal HF stage, as measured by plasma BUN and creatinine. DCM mice (mCREBTg) are slightly hypotensive at 91 days of age compared to mCREB WT. mCREB mice were randomly assigned to experimental groups. Groups were denoted as WT (n=20), DCM (Control, n=28), and DCM+direct renin inhibitor treatment (+DRI, n=29). At 90-day censorship, dissected organs were weighed, and terminal blood was collected via cardiocentesis with EDTA-aprotinin syringes to prevent proteolysis of targeted proteins. The blood samples were centrifuged at 3000 rpm for 20 min at 4° C. Plasma samples were aliquoted and stored at −80° C. until analysis.
# as §1
# Enzyme Immunoassay: Plasma Ang II, aldosterone, atrial natriuretic peptide (N terminus-ANP), cyclic guanosine monophosphate (cGMP), neprilysin, and corin levels were measured by enzyme immunoassays according to the manufacturers' protocols (Phoenix Pharm. Inc., Burlingame, Calif., USA; Abcam Inc., Cambridge, Mass., USA; Enzo Life Sciences Inc., Farmingdale, N.Y., USA; Boster Biological Technology, Pleasanton, Calif., USA; USCN Life Science Inc., Houston, Tex., USA).
# [2] = in humans; cited from earlier work
# mouse renin = molecular target: T1, mouse renin (Mus musculus, UniProt P06281); assay: Plasma renin activity assay (FRET substrate) in plasma of treated DCM mice; format: in vivo; conditions: female DCM mice, 100 mg/kg/day orally in drinking water from 50 days of age, measured at 90 days, vs DCM control
# T1 construct: from tissue; host or cells: plasma (terminal blood, cardiocentesis) of female DCM (mCREB transgenic) mice on a C57BL/6 background
# T1 sequence (P06281 72-402): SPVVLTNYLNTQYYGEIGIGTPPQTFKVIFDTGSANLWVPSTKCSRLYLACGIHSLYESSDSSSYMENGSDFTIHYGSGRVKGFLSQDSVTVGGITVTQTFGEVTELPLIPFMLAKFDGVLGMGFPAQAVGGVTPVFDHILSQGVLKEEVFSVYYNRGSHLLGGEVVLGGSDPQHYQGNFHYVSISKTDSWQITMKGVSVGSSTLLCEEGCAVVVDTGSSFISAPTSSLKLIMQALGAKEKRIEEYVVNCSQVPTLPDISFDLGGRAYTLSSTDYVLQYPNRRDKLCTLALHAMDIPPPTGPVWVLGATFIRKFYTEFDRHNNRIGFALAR
# Method: Plasma samples were aliquoted and stored at −80° C. until analysis.
# [3] = orally in rats; cited from earlier work
# blood pressure = conditions: 15-50 mg/kg/day via subcutaneous osmotic pumps, previous studies; cited from earlier work
# [4] = system: female mice with dilated cardiomyopathy (DCM); assay: Echocardiography of DCM mice at 90 days of age; format: in vivo, mouse
# [5] = system: female mice with dilated cardiomyopathy (DCM); assay: Kaplan-Meier survival of female DCM mice; format: in vivo, mouse
# Description: Mice: In the Examples 1-3 below, the mice used were all female littermates with or without dilated cardiomyopathy (DCM) on a C57BL/6 background. DCM is a major cause of HF, which is associated with pathological dilation of the heart ventricles and declines in heart contractile or systolic function. DCM mice express transgene dominant negative CREB transcription factor, specific to cardiomyocytes and develop a consistent progressive DCM and HF similar to humans. In female mice with DCM renal function remains within normal range up to the terminal HF stage, as measured by plasma BUN and creatinine. DCM mice (mCREBTg) are slightly hypotensive at 91 days of age compared to mCREB WT. mCREB mice were randomly assigned to experimental groups. […]
# Dose calculations were based on an average consumption of 5 mL of water/day/mouse. […] No issues with palatability or clinical dehydration were noted throughout the study as assessed by blinded husbandry and veterinary staff. […]
# Statistical Analysis: Statistical analyses were performed with GraphPad Prism 7.04 software (GraphPad Software, La Jolla, Calif., USA) using Student's t-test, one-way ANOVA, or two-way ANOVA with Tukey's multiple comparisons test (unless otherwise indicated) and Pearson's correlation. Survival was analyzed using Kaplan-Meier curves with the Mantel-Cox test. […]
structure (smiles),measurement,setting,value
"COCCCOc1cc(C[C@@H](C[C@H](N)[C@@H](O)C[C@H](C(=O)NCC(C)(C)C(N)=O)C(C)C)C(C)C)ccc1OC [aliskiren, aliskiren hemifumarate]",palatability or clinical dehydration,mice,No issues
same,side effects / abnormal clinical observations,mice; 100 mg/kg/day,no side effects or abnormal clinical observations
same,plasma Ang II levels,"[1]; female DCM mice, 100 mg/kg, DCM+DRI vs DCM+vehicle",no significant difference
same,plasma aldosterone levels,"[1]; female DCM mice, vs DCM control",not modulated by treatment
same,plasma aldosterone levels,"[1]; female DCM mice, vs DCM control, listed as DRI-aliskiren",no significant difference
same,ANP plasma levels,[1]; vs DCM control,not affected
same,corin plasma levels,[1]; vs DCM control,not affected
same,plasma cGMP levels,[1]; vs DCM control,non-significant trend toward lower levels
same,plasma neprilysin levels,"[1]; vs DCM control, P<0.001, listed as DRI",normalized plasma neprilysin levels
same,plasma neprilysin levels,"[1]; vs DCM control, P<0.001, listed as DRI-aliskiren",lowered neprilysin to WT levels
same,bioavailability,[2],low
same,plasma renin activity (PRA),mouse renin,significantly reduced elevated PRA to normal levels
same,plasma renin activity (PRA),mouse renin; listed as DRI-aliskiren,normalized pathological renin activity
same,bioavailability,[3],2.6%
same,blood pressure,blood pressure,no alteration in blood pressure
same,heart rate,"[4]; anesthetized, control 419±10 bpm, P<0.01",469±14 bpm
same,cardiac output (CO mL/min),"[4]; vs control DCM mice, P<0.01",improved
same,"systolic function, ejection fraction (EF %)","[4]; vs control DCM mice, P<0.05",improved
same,"systolic function, fractional shortening (FS %)","[4]; vs control DCM mice, P<0.05",improved
same,median survival,"[5]; 100 mg/kg/day oral, control 103 days, P<0.05",110 days
same,outlived the control mice (survival gain),[5]; median survival vs control,7%
